Test results: ChEMBL document CHEMBL3045310, “Synthesis of new benzotriazepin-5(2H)-one derivatives of expected antipsychotic activity” (Med Chem Res, 2013)
Calls of active or inactive are those of the source. The calls are words filed in the database; no cut-off is given here.

Experiments:
Mus musculus [1] = experiment: Anticonvulsant activity in Mus musculus albino (mouse) assessed as inhibition of PTZ-induced seizure at 3 mg/kg, ip administered 1 hr prior to PTZ-challenge measured after 2 to 4 min relative to control; type: functional, organism-based; parameters: dose 3 mg/kg
Mus musculus [2] = experiment: Neurotoxicity against Mus musculus albino (mouse) assessed as inability to climb horizontal screen at 3 mg/kg, ip after 30 min by horizontal screen test relative to control; type: toxicity, organism-based; parameters: dose 3 mg/kg, route intraperitoneal; conditions: in vivo, 0.5 h
Mus musculus [3] = experiment: Neurotoxicity against Mus musculus albino (mouse) assessed as fall from horizontal screen at 3 mg/kg, ip after 30 min by horizontal screen test relative to control; type: toxicity, organism-based; parameters: dose 3 mg/kg, route intraperitoneal; conditions: in vivo, 0.5 h
Mus musculus [4] = experiment: Neurotoxicity against Mus musculus albino (mouse) at 3 mg/kg, ip after 30 min by rotarod test; type: toxicity, organism-based; parameters: dose 3 mg/kg, route intraperitoneal; conditions: in vivo, 0.5 h
Mus musculus [5] = experiment: CNS depressant activity in Mus musculus albino (mouse) assessed as immobility time at 3 mg/kg, ip measured after 24 hr by forced swim test (reference value: 120 +/- 5.1 secs); type: functional; conditions: route intraperitoneal
Mus musculus [6] = experiment: Antipsychotic activity in Mus musculus albino (mouse) assessed as ptosis at 3 mg/kg, ip relative to control; type: functional; conditions: route intraperitoneal

| SMILES | inhibition (Mus musculus [1]) | Activity (Mus musculus [2]) | Activity (Mus musculus [3]) | Activity (Mus musculus [4]) | Time (Mus musculus [5]) | Activity (Mus musculus [6]) |
| --- | --- | --- | --- | --- | --- | --- |
| CN1c2ccccc2C(=O)NN(c2ccccc2)C1c1ccc(Br)cc1 (configuration not stated) | inactive | 16.7% | 16.7% | Toxic | 140 s | 0% |
| CN1c2ccccc2C(=O)NN(c2ccccc2)C1c1ccccc1[N+](=O)[O-] (configuration not stated) | inactive | 16.7% | 16.7% | Toxic | 141 s | 0% |
| COc1cc(C2N(C)c3ccccc3C(=O)NN2c2ccccc2)cc(OC)c1OC (configuration not stated) | inactive | 0% | 0% | Non-toxic | 135 s | 50% |
| COc1ccc(C2N(C)c3ccccc3C(=O)NN2c2ccccc2)cc1 (configuration not stated) | inactive | 0% | 16.7% | Toxic | 141 s | 75% |
| CN1c2ccccc2C(=O)NN(c2ccccc2)C1c1ccc(O)cc1 (configuration not stated) | inactive | 0% | 16.7% | Toxic | 151 s | 75% |
| CN1c2ccccc2C(=O)NN(c2ccccc2)C1c1ccc(Cl)cc1 (configuration not stated) | inactive | 33.3% | 33.3% | Toxic | 156 s | 50% |
| CN1c2ccccc2C(=O)NN(c2ccccc2)C1c1ccccc1 (configuration not stated) | inactive | 0% | 0% | Non-toxic | 118 s | 0% |
| CN1CCN(C2=Nc3cc(Cl)ccc3Nc3ccccc32)CC1 [CLOZAPINE] | inactive | 16.7% | 50% | Toxic | 194 s | 100% |
| CN1c2ccccc2C(=O)NN(c2ccccc2)C1c1ccc([N+](=O)[O-])cc1 (configuration not stated) | inactive | 0% | 0% | Non-toxic | 125 s | 50% |
| CN1CN(C(=O)c2ccncc2)NC(=O)c2ccccc21 | inactive | 16.7% | 33.3% | Toxic | 190 s | 100% |
| CN1CN(c2ccccc2)NC(=O)c2ccccc21 | inactive | 0% | 50% | Toxic | 178 s | 100% |
| CN1C(=S)N(c2ccccc2)NC(=O)c2ccccc21 | inactive | 0% | 0% | Non-toxic | 129 s | 100% |
